Values quoted from earlier work as cited in patent publication US20030215917A1, “Assay for evaluation of activity of compounds against HCV using a novel detection system in the HCV replicon” (priority 2002, published 2003).

Legend:
HCV replicon cells = details: at high concentration; stated as known
[1] = test system: Hepatitis B virus (HBV), Hepatitis C virus (HCV), Yellow Fever virus, Dengue Virus, Japanese Encephalitis, West Nile virus and related flaviviruses
HCV and HCV replicon = details: stated as known

Row | Compound | toxicity to the host cells (host cells) | cytotoxicity effect (HCV replicon cells) | activity against viruses [1] | inhibition of the replication of the virus (viral growth) [1] | inhibition of viral replication (HCV and HCV replicon)
1 | O=C1OCc2c1cc1ccc3c(c1c2-c1ccc2c(c1)OCO2)OCO3 [Helioxanthin] | very low toxicity | known to have cytotoxicity effect at high concentration | high activity | potent inhibition | –
2 | interferon alpha | – | – | – | – | known to inhibit viral replication
